Results reported in ChEMBL document CHEMBL3044568, “Synthesis, analgesic, anti-inflammatory, and in vitro antimicrobial activities of some novel quinazolin-4(3H)-one derivatives” (Med Chem Res, 2013).
In brackets after ≈: the same amount, converted by molar mass.

What was measured:
Rattus norvegicus [1] = experiment: Anti-inflammatory activity in Rattus norvegicus Wistar (rat) assessed as protection against carrageenan-induced paw edema at 10 mg/kg, po measured at 30 min by plethysmographic analysis (reference value: 4 +/- 0.28%); format: functional
Mus musculus [2] = experiment: Analgesic activity in Mus musculus […] albino (mouse) at 20 mg/kg, po measured at 3 hr by tail flick test (reference value: 3 +/- 0.41%)
Rattus norvegicus [3] = experiment: Ulcerogenecity in Rattus norvegicus Wistar albino (rat) stomach assessed as ulcer index administered 20 mg/kg, ip qd for 3 days measured on day 4 (reference value: 0.13 +/- 0.05 no unit); format: ADME, organism-based; parameters: dose 20 mg/kg, route intraperitoneal; details: in vivo, 72 h
Rattus norvegicus [4] = experiment: Anti-inflammatory activity in Rattus norvegicus Wistar (rat) assessed as protection against carrageenan-induced paw edema at 20 mg/kg, po measured at 30 min by plethysmographic analysis (reference value: 4 +/- 0.28%); format: functional
Bacillus cereus = experiment: Antibacterial activity against Bacillus cereus ATCC 11778 assessed as growth inhibition after 24 hr by agar streak dilution method; format: functional; details: ATCC 11778, 24 h
Rattus norvegicus [5] = experiment: Anti-inflammatory activity in Rattus norvegicus Wistar (rat) assessed as protection against carrageenan-induced paw edema at 20 mg/kg, po measured at 3 hr by plethysmographic analysis (reference value: 4 +/- 0.75%); format: functional
Mus musculus [6] = experiment: Analgesic activity in Mus musculus […] albino (mouse) at 20 mg/kg, po measured at 30 min by tail flick test (reference value: 4 +/- 0.72%)
Staphylococcus aureus = experiment: Antibacterial activity against Staphylococcus aureus ATCC 9144 assessed as growth inhibition after 24 hr by agar streak dilution method; format: functional; details: ATCC 9144, 24 h
Mus musculus [7] = experiment: Analgesic activity in Mus musculus […] albino (mouse) at 10 mg/kg, po measured at 1 hr by tail flick test (reference value: 5 +/- 0.49%)
Micrococcus luteus = experiment: Antibacterial activity against Micrococcus luteus ATCC 4698 assessed as growth inhibition after 24 hr by agar streak dilution method; format: functional; details: ATCC 4698, 24 h
Rattus norvegicus [8] = experiment: Anti-inflammatory activity in Rattus norvegicus Wistar (rat) assessed as protection against carrageenan-induced paw edema at 20 mg/kg, po measured at 2 hr by plethysmographic analysis (reference value: 5 +/- 0.41%); format: functional
Rattus norvegicus [9] = experiment: Anti-inflammatory activity in Rattus norvegicus Wistar (rat) assessed as protection against carrageenan-induced paw edema at 10 mg/kg, po measured at 1 hr by plethysmographic analysis (reference value: 6 +/- 0.63%); format: functional
Mus musculus [10] = experiment: Analgesic activity in Mus musculus […] albino (mouse) at 10 mg/kg, po measured at 2 hr by tail flick test (reference value: 6 +/- 0.84%)
Aspergillus niger = experiment: Antifungal activity against Aspergillus niger ATCC 9029 assessed as growth inhibition after 48 hr by agar streak dilution method; format: functional; details: ATCC 9029, 48 h
Klebsiella pneumoniae = experiment: Antibacterial activity against Klebsiella pneumoniae ATCC 11298 assessed as growth inhibition after 24 hr by agar streak dilution method; format: functional; details: ATCC 11298, 24 h
Rattus norvegicus [11] = experiment: Ulcerogenecity in Rattus norvegicus Wistar albino (rat) stomach assessed as ulcer index administered 20 mg/kg, ip qd for 3 days measured on day 4 relative to aspirin; format: ADME, organism-based; parameters: dose 20 mg/kg, route intraperitoneal; details: in vivo, 72 h
Mus musculus [12] = experiment: Analgesic activity in Mus musculus […] albino (mouse) at 20 mg/kg, po measured at 1 hr by tail flick test (reference value: 5 +/- 0.49%)
Mus musculus [13] = experiment: Analgesic activity in Mus musculus […] albino (mouse) at 10 mg/kg, po measured at 30 min by tail flick test (reference value: 4 +/- 0.72%)
Mus musculus [14] = experiment: Analgesic activity in Mus musculus […] albino (mouse) at 20 mg/kg, po measured at 2 hr by tail flick test (reference value: 6 +/- 0.84%)
Rattus norvegicus [15] = experiment: Anti-inflammatory activity in Rattus norvegicus Wistar (rat) assessed as protection against carrageenan-induced paw edema at 20 mg/kg, po measured at 1 hr by plethysmographic analysis (reference value: 6 +/- 0.63%); format: functional
Escherichia coli = experiment: Antibacterial activity against Escherichia coli ATCC 25922 assessed as growth inhibition after 24 hr by agar streak dilution method; format: functional; details: ATCC 25922, 24 h
Mus musculus [16] = experiment: Analgesic activity in Mus musculus […] albino (mouse) at 10 mg/kg, po measured at 3 hr by tail flick test (reference value: 3 +/- 0.41%)
Aspergillus fumigatus = experiment: Antifungal activity against Aspergillus fumigatus ATCC 46645 assessed as growth inhibition after 48 hr by agar streak dilution method; format: functional; details: ATCC 46645, 48 h
Rattus norvegicus [17] = experiment: Ulcerogenecity in Rattus norvegicus Wistar albino (rat) stomach assessed as ulcer index administered 20 mg/kg, ip qd for 3 days measured on day 4 relative to diclofenac; format: ADME, organism-based; parameters: dose 20 mg/kg, route intraperitoneal; details: in vivo, 72 h
Rattus norvegicus [18] = experiment: Anti-inflammatory activity in Rattus norvegicus Wistar (rat) assessed as protection against carrageenan-induced paw edema at 10 mg/kg, po measured at 3 hr by plethysmographic analysis (reference value: 4 +/- 0.75%); format: functional
[19] = tested on: Staphylococcus epidermidis; experiment: Antibacterial activity against Staphylococcus epidermidis ATCC 155 assessed as growth inhibition after 24 hr by agar streak dilution method; format: functional; details: ATCC 155, 24 h
Pseudomonas aeruginosa = experiment: Antibacterial activity against Pseudomonas aeruginosa […] assessed as growth inhibition after 24 hr by agar streak dilution method; format: functional
Rattus norvegicus [20] = experiment: Anti-inflammatory activity in Rattus norvegicus Wistar (rat) assessed as protection against carrageenan-induced paw edema at 10 mg/kg, po measured at 2 hr by plethysmographic analysis (reference value: 5 +/- 0.41%); format: functional
Rattus norvegicus [21] = experiment: Ulcerogenecity in Rattus norvegicus Wistar albino (rat) stomach assessed as ulcer index administered 200 mg/kg, ip qd for 3 days measured on day 4 (reference value: 0.13 +/- 0.05 no unit); format: ADME, organism-based; parameters: dose 200 mg/kg, route intraperitoneal; details: in vivo, 72 h

SMILES	Activity (Rattus norvegicus [1]) [%]	Activity (Mus musculus [2]) [%]	UI (Rattus norvegicus [3]) [no unit]	Activity (Rattus norvegicus [4]) [%]	MIC (Bacillus cereus) [µg/mL]	Activity (Rattus norvegicus [5]) [%]	Activity (Mus musculus [6]) [%]	MIC (Staphylococcus aureus) [µg/mL]	Activity (Mus musculus [7]) [%]	MIC (Micrococcus luteus) [µg/mL]	Activity (Rattus norvegicus [8]) [%]	Activity (Rattus norvegicus [9]) [%]	Activity (Mus musculus [10]) [%]	MIC (Aspergillus niger) [µg/mL]	MIC (Klebsiella pneumoniae) [µg/mL]	UI (Rattus norvegicus [11]) [%]	Activity (Mus musculus [12]) [%]	Activity (Mus musculus [13]) [%]	Activity (Mus musculus [14]) [%]	Activity (Rattus norvegicus [15]) [%]	further results
Cc1nc2ccccc2c(=O)n1-c1ccc(NC(=O)CN/N=C/c2ccccc2)cc1	24	32	0.7	35	31.2 (≈ 75.9 µM)	32	42	31.2 (≈ 75.9 µM)	35	62.5 (≈ 152 µM)	51	29	41	31.2 (≈ 75.9 µM)	15.6 (≈ 38 µM)	31	50	30	57	46	MIC (Escherichia coli): 62.5 µg/mL (≈ 152 µM); Activity (Mus musculus [16]): 29%; MIC (Aspergillus fumigatus): 31.2 µg/mL (≈ 75.9 µM); UI (Rattus norvegicus [17]): 34%; Activity (Rattus norvegicus [18]): 28%; MIC [19]: 31.2 µg/mL (≈ 75.9 µM); MIC (Pseudomonas aeruginosa): 31.2 µg/mL (≈ 75.9 µM); Activity (Rattus norvegicus [20]): 34%
Cc1nc2ccccc2c(=O)n1-c1ccc(NC(=O)CN/N=C/c2ccc(F)cc2)cc1	26	35	0.64	37	7.81 (≈ 18.2 µM)	36	44	31.2 (≈ 72.8 µM)	38	15.6 (≈ 36.4 µM)	52	33	42	31.2 (≈ 72.8 µM)	3.9 (≈ 9.08 µM)	31	54	32	58	49	MIC (Escherichia coli): 31.2 µg/mL (≈ 72.8 µM); Activity (Mus musculus [16]): 31%; MIC (Aspergillus fumigatus): 15.6 µg/mL (≈ 36.4 µM); UI (Rattus norvegicus [17]): 34%; Activity (Rattus norvegicus [18]): 29%; MIC [19]: 7.81 µg/mL (≈ 18.2 µM); MIC (Pseudomonas aeruginosa): 7.81 µg/mL (≈ 18.2 µM); Activity (Rattus norvegicus [20]): 36%
Cc1ccc(/C=N/NCC(=O)Nc2ccc(-n3c(C)nc4ccccc4c3=O)cc2)cc1	30	41	0.61	41	31.2 (≈ 73.4 µM)	39	48	125 (≈ 294 µM)	42	125 (≈ 294 µM)	60	35	47	62.5 (≈ 147 µM)	31.2 (≈ 73.4 µM)	31	59	37	63	54	MIC (Escherichia coli): 62.5 µg/mL (≈ 147 µM); Activity (Mus musculus [16]): 37%; MIC (Aspergillus fumigatus): 125 µg/mL (≈ 294 µM); UI (Rattus norvegicus [17]): 34%; Activity (Rattus norvegicus [18]): 31%; MIC [19]: 62.5 µg/mL (≈ 147 µM); MIC (Pseudomonas aeruginosa): 62.5 µg/mL (≈ 147 µM); Activity (Rattus norvegicus [20]): 41%
Cc1nc2ccccc2c(=O)n1-c1ccc(NC(=O)CN/N=C/c2ccc(Cl)cc2)cc1	31	40	0.59	43	15.6 (≈ 35 µM)	42	50	31.2 (≈ 70.1 µM)	45	7.81 (≈ 17.5 µM)	59	37	48	15.6 (≈ 35 µM)	7.81 (≈ 17.5 µM)	31	58	36	64	52	MIC (Escherichia coli): 31.2 µg/mL (≈ 70.1 µM); Activity (Mus musculus [16]): 35%; MIC (Aspergillus fumigatus): 7.81 µg/mL (≈ 17.5 µM); UI (Rattus norvegicus [17]): 34%; Activity (Rattus norvegicus [18]): 34%; MIC [19]: 15.6 µg/mL (≈ 35 µM); MIC (Pseudomonas aeruginosa): 15.6 µg/mL (≈ 35 µM); Activity (Rattus norvegicus [20]): 43%
CC(=O)Oc1ccccc1C(=O)O [ASPIRIN]	–	–	–	–	–	–	–	–	–	–	–	–	–	–	–	–	–	–	–	–	UI (Rattus norvegicus [21]): 1.79%
